Here are results for one substance from patent US20050272682A1, “SiRNA targeting PI3K signal transduction pathway and siRNA-based therapy” (priority 2004, published 2005).

“Also recorded” adds a separate entry of the source.

Data set [1] deals with KM20 cells. Nature of the data set: MTT assay, KM20 cells. In kind it is cell-based, human. The following applies: KM20 cells at 96, 120 and 144 h after transfection. The method, then:
Cells were transfected with pik3r1, Akt1 or scrambled siRNA at a density of 2×10^5 cells/well in 12 well plates. After 24 h, adherent cells were detached by rapid trypsinization, counted in a Hausser chamber and replated into 96 well plates at a concentration of 2×10^3 cells/well. […]
(In general: Tetrazolium assays rely on reduction of a dye to a coloured formazan, in cell work by metabolically active cells.)

Data set [2] relates to KM20 cells. Description: DNA fragmentation assay (Cell Death Detection ELISA), KM20 cells. In kind it is cell-based, human. To be noted: KM20 cells. The method, then: (§1) Cells were transfected with pik3r1, Akt1 or scrambled siRNA. After 48 h, adherent cells were detached by rapid trypsinization, counted in a Hausser chamber and seeded at a density of 2×10^3 cells per well in 96-well flat-bottom microtiter plates and incubated in 250 μl of growth medium for 24 h at 37° C. Media were removed and either new complete media or TRAIL (100 ng/mL) was added in a final volume of 200 μL and allowed to grow for 24 h at 37° C. After treatment, DNA fragmentation was evaluated by examination of cytoplasmic histone-associated DNA fragments (mono- and oligonucleosomes) using a Cell Death Detection ELISA^Plus kit (Roche Molecular Biochemicals) according to the manufacturer's instructions and as previously described (Wang. et al., 2002). The experiments were repeated on at least 3 separate occasions.
(In an ELISA, binding on a coated surface is turned into a signal by an enzyme label.)

The test system of a further data set is KM12C cells. Nature of the data set: DNA fragmentation assay (Cell Death Detection ELISA), KM12C cells. The class given is cell-based, human. The method, then:
as §1

Data set [3] relates to KM20 cells. Nature of the data set: Ribonuclease protection assay, KM20 cells. The class given is cell-based, human. The method, then: Cells were treated with pik3r1 and Akt1 siRNA and harvested 72 h later. RNA was isolated from cells using TRIzol® RNA reagent according to the manufacturer's protocol. A multiprobe template set (hAPO3c), which assesses expression of caspase 8, FASL, FAS, DR3, Decoy receptor 1 (DcR1), DR4, DR5, TRAIL, TNFR p55, TRADD and the housekeeping genes GAPDH and L32, as well as the Human Apoptosis hAPO-2b and hAPO-2c Template Set were labeled using Ambion T7 MAXIscript. The Ambion RPA III kit was then utilized to hybridize the RNA from the samples with the labeled probes. After RNAse treatment of hybridized samples, protected products were resolved on a 5% acrylamide gel, adsorbed onto filter paper, and exposed to Kodak BioMax MR film in a cassette at −70° C. and analyzed as previously described (Wang, et al., 2000).

Data set [4] deals with KM20 tumor xenografts. Description: KM20 tumor xenograft growth in nude mice, intratumoral siRNA with electrotherapy. In kind it is in vivo. To be noted: 5 μg siRNA intratumoral + electric pulses every 3rd day; by day 12, persisted for the study period (30 days). The method, then:
For in vivo studies, 4-6 week old male nude^nu/nu mice were obtained from Harlan Sprague Dawley (Indianapolis, Ind.) and housed in clean pathogen-free rooms in an environment with controlled temperature (22° C.), humidity, and a 12 h light/dark cycle. The mice were fed standard chow (Formula Chow 5008; Purina Mills, St. Louis, Mo.) and tap water ad libitum and allowed to acclimate for one week.
Prior to tumor injection, KM20 cells were harvested, washed twice in ice-cold serum free minimum Eagle's medium, counted for viable cells by trypan blue exclusion. The cells were resuspended in the same medium and used to inject mice subcutaneously (sc) with 2×10^6 cells in a volume of 0.2 ml. After tumors reached ˜60 mm^2, mice were sacrificed and 9 mm^2 tumor xenografts were transferred to the left flank of athymic mice. After tumor xenografts reached ˜60 mm^2 (day 10), mice were randomly divided into three groups (n=5 mice/group): the first group of mice was treated with scrambled siRNA, the second and third groups were treated with siRNA (5 μg diluted in 100 μl of serum free medium) directed against pik3r1 or Akt1, respectively, as intratumoral injections. […] Tumor growth was assessed every third day from day 10 onward by measuring the two greatest perpendicular tumor dimensions using vernier calipers (Mitutozo, Tokyo, Japan) (Wang, et al., 2002). […]

The subject of data set [5] is KM20 tumor xenografts. Nature of the data set: Western blot of KM20 tumor xenografts after siRNA treatment. In kind it is in vivo, mice. The procedure: Western immunoblot analyses were performed as described previously (Wang, et al., 2000). Cells were lysed with TNN buffer at 4° C. for 30 min. Lysates were clarified by centrifugation (10,000×g for 30 min at 4° C.) and protein concentrations determined using the method of Bradford (1976). Briefly, total protein (100 μg) was resolved on a 10% polyacrylamide gel and transferred to Immobilon-P […] membranes. Filters were incubated overnight at 4° C. in blotting solution (Tris-buffered saline containing 5% nonfat dried milk and 0.1% Tween 20), followed by a 1-h incubation with primary antibodies. Filters were washed three times in a blocking solution and incubated with horseradish peroxidase-conjugated secondary antibodies for 1 h. After three additional washes, the immune complexes were visualized by ECL detection.
Prior to tumor injection, KM20 cells were harvested, washed twice in ice-cold serum free minimum Eagle's medium, counted for viable cells by trypan blue exclusion. The cells were resuspended in the same medium and used to inject mice subcutaneously (sc) with 2×10^6 cells in a volume of 0.2 ml. After tumors reached ˜60 mm^2, mice were sacrificed and 9 mm^2 tumor xenografts were transferred to the left flank of athymic mice. After tumor xenografts reached ˜60 mm^2 (day 10), mice were randomly divided into three groups (n=5 mice/group): the first group of mice was treated with scrambled siRNA, the second and third groups were treated with siRNA (5 μg diluted in 100 μl of serum free medium) directed against pik3r1 or Akt1, respectively, as intratumoral injections. Treatments consisted of electrotherapy initiated from 2 to 3 min after intratumoral siRNA injection once a day every 3 days. Tumor growth was assessed every third day from day 10 onward by measuring the two greatest perpendicular tumor dimensions using vernier calipers (Mitutozo, Tokyo, Japan) (Wang, et al., 2002). Consistent with institutional requirements, the mice were euthanized once tumors grew to a size greater that 2 cm.
Electrotherapy consisted of intratumoral administration of pik3r1, Akt1 or scrambled control siRNA followed by exposure of tumor nodules to electric pulses. Square wave electric pulses of 70 μsec, 100 V amplitude were delivered through two parallel stainless steel electrodes (Tweezertrode Model 522, Holliston, Mass.) with an electropulsator BTX T 820 (Holliston, Mass.). In the study, plate electrodes with a distance of 10 mm between them were used for percutaneous delivery of electric pulses. Each run of electric pulses was delivered in two trains of tree pulses, with 1 sec interval, in two perpendicular directions. The orientation of the electric field was used to direct the uptake of the siRNA. Good contact between the electrodes and the skin was assured by means of a conductive gel. Nodules larger than 7 mm in diameter were treated with several runs of electric pulses, administered in adjacent positions in such a way that the whole tumor area was effectively treated.

The mark [6] stands for this setting: siRNA alone compared to scrambled sequence.
The mark [7] stands for this setting: siRNA in combination with TRAIL 100 ng/mL.

As to “pik3r1 siRNA: siRNA to human pik3r1 (p85α) used in KM20/KM12C cells and xenografts; SEQ ID NO:24 vs. SEQ ID NO:25 (chain 1 GAAUAUACCCGCACAUCCCUU; chain 2 GGGAUGUGCGGGUAUAUUCUU; listed as RNA, chemistry not given here)”, the “cell viability (MTT)” value in the data set on KM20 cells [1] is given as “significantly decreased”. In addition, the “DNA fragmentation (apoptosis)” value in the data set with KM20 cells [2] (setting [6]) is on record as “increase; also recorded: induced”. Besides, the “TRAIL-mediated apoptosis (DNA fragmentation)” value with KM20 cells [2] (setting [7]) is on record as “significant augmentation”. Further, the “DNA fragmentation (apoptosis)” value in the data set on KM12C cells (setting [6]) is “increase; also recorded: induced”. Further, in the data set with KM12C cells (setting [7]), the “TRAIL-mediated apoptosis (DNA fragmentation)” value was “significant augmentation”. For the same substance, in the data set on KM20 cells [3], the “Bcl-w mRNA expression” value is given as “decreased”; the “Bcl-x (L, S) mRNA expression” value was “decreased”; the “expression of the other apoptotic-related genes in the probe set” value is on record as “no marked change”; the “mRNA expression of DR4 and DR5” value is “increased”. Besides, the KM20 tumor growth result in the data set on KM20 tumor xenografts [4] is reported as “Significant inhibitory effects”. Further, in the data set on KM20 tumor xenografts [5], the Bax protein expression result is “increased”, the PARP cleavage result was “increased”, the “activation of caspase-3” value is listed as “increased” and the “activation of caspase-8” value was “increased”. Besides, in the data set on KM20 tumor xenografts [5], the “activation of caspase-9” value is reported as “increased”, the p85α expression result is “decreased” and the pAkt expression result was “decreased”. In the data set with KM20 tumor xenografts [5] (compared to scrambled sequence), the Bcl-xL protein expression entry is “decreased” and the Mcl-1 protein expression entry is “decreased”. Further, the “cytochrome C expression” value with KM20 tumor xenografts [5] (compared with scrambled control) is “increased”.
